Literature values in EP2179733A1, “PHARMACEUTICAL COMPOSITION COMBINING AN ANTIMICROBIAL AGENT AND A SELECTIVE ENKEPHALINASE ENZYME INHIBITOR, WHICH CAN BE USED TO CONTROL AND TREAT ACUTE BACTERIAL DIARRHOEA” (World Trade Import-Export, WTIE A.G., priority 2007, dated 2009).

Assays:
[1] = molecular target: T1, plasmatic enkephalinase (Homo sapiens, UniProt P08473)
T1 construct: from tissue; host or cells: plasma after oral administration of Racecadotril
T1 sequence (P08473 whole entry): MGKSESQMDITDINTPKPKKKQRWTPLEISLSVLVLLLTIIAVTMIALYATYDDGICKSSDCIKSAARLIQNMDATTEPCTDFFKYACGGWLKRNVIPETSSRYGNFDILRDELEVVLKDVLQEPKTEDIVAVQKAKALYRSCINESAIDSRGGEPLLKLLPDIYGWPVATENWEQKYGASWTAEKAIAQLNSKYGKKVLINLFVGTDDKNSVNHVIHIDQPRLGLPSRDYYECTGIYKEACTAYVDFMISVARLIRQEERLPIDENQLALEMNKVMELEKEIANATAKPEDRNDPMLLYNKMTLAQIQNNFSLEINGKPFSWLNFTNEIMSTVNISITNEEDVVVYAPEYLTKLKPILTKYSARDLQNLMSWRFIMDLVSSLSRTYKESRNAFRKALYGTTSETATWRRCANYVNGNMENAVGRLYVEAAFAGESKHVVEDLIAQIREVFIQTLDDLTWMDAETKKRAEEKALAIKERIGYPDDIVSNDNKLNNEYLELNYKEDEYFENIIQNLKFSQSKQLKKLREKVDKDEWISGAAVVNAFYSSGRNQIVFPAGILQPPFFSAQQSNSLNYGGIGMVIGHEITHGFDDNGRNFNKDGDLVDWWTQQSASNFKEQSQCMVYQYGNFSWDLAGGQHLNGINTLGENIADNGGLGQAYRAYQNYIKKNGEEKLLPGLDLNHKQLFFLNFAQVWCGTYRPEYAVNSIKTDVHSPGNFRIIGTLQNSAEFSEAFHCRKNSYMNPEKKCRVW

duration of inhibiting effect over plasmatic enkephalinase ([1]; 1.5 mg/kg oral doses): about 8 hours | maximum enzymatic inhibition level ([1]; 1.5 mg/kg oral doses): about 90% | start of plasmatic enkephalinase inhibiting effect after administration ([1]; oral administration): 30 min | time to maximum activity ([1]; oral administration): 2 h | delay of maximum activity when administered with food ([1]; with food): about one and half | administered dose distributed in tissues (in vivo): 1% | mean life (in vivo): about 3 hours | time to maximum concentration from administration (oral administration): 60 min | bioavailability when administered with food (with food): not modified
Compound: CC(=O)SCC(Cc1ccccc1)C(=O)NCC(=O)OCc1ccccc1 (stereo not drawn) [Racecadotril]
